Laboratory results as given in patent publication US11013780B2, “Methods of treating female infertility” (Myovant Sciences GmbH, priority 2016, dated 2021).
Where a SMILES comes first, the peptide text is derived from it. [ ]: non-standard residue; d: D form. Arg(Me) = CNC(=N)NCCC[C@H](N)C(=O)O; Hyp = O=C(O)[C@@H]1C[C@@H](O)CN1; azaGly = NNC(=O)O

Key:
[1] = Multiple-dose PK, 2-hour SC infusion once daily for 14 days, Japanese prostate cancer patients; format: in vivo, human; settings: male, human, in vivo, sc; for dose excreted: Mean percent cumulative urinary excretion at 24 hours postdose
Method: It was an open-label, ascending dose study of API-MA administered via 2-hour SC infusion once daily for 14 days that was expected to suppress testosterone in Japanese hormone-naïve prostate cancer patients. Six patients received API-MA at doses of 0.5 mg (3 patients) and 1.0 mg (3 patients) a day for 14 days.
To measure plasma concentrations of API-MA, blood specimens were collected at the following times: Day 1 (predose and 2, 4, 6, 10 hours postdose); days 2, 4, 6, 8, 10, and 12 (predose); day 14 (predose and 2, 4, 6, 10, 24, 48 hours postdose); day 21; and day 28. To measure urinary excretion of API-MA, urine specimens were collected at the following times: Day 1 (predose and 0 to 4, 4 to 8, 8 to 12, 12 to 24 hours postdose) and day 14 (0 to 4, 4 to 8, 8 to 12, 12 to 24 hours postdose).

[2] = Pharmacokinetics in dogs after SC and IV administration; settings: dog, in vivo
Source text: The PK of API-MA was studied in dogs after SC and IV administration.

[3] = Pharmacokinetics in rats after SC and IV administration; settings: rat, in vivo
Method: The PK of API-MA was studied in rats after SC and IV administration.
The PK linearity of API-MA was also investigated in rats after IV administration. The plasma C5min and AUC(0-24) values increased dose-proportionally. […] The elimination T1/2 values were 0.4 hours at 0.01 and 0.1 mg/kg and 0.5 hours at 1 mg/kg. These findings indicate that the PK of API-FB was linear in rats after single IV administration over the dose range of 0.01 to 1 mg/kg. The greater than dose-proportional increase in the first-pass kinetics with SC administration would indicate nonlinear PK in rats after SC administration.

[4] = Pharmacokinetics in monkeys after SC and IV administration; settings: monkey, in vivo
Source text: The PK of API-MA was studied in monkeys after SC and IV administration.

[5] = iv, 1 mg/kg, T½ γ (elimination)

In the case of `CNC(=N)NCCC[C@H](NC(=O)[C@H](CC(C)C)NC(=O)NNC(=O)[C@H](Cc1ccccc1)NC(=O)[C@@H](NC(=O)[C@H](CC(N)=O)NC(=O)[C@@H]1C[C@@H](O)CN1C(=O)[C@@H](Cc1ccc(O)cc1)NC(C)=O)[C@@H](C)O)C(=O)N[C@@H](Cc1c[nH]c2ccccc12)C(N)=O` [Compound 1, 2-(N-Acetyl-D-tyrosyl-trans-4-hydroxy-L-prolyl-L-asparaginyl-L-threonyl-L-phenylalanyl)-hydrazinocarbonyl-L-leucyl-Nω-methyl-L-arginyl-L-tryptophanamide] (Ac-[dY][Hyp]NTF[azaGly]L[Arg(Me)]W-NH2), the “Mean percent cumulative urinary excretion at 24 hours postdose” value ([1]; 0.5 mg/day) is reported as 8.99%, the dose excreted ([1]; 0.5 mg/day) is reported as 6.5% and the “Mean percent cumulative urinary excretion at 24 hours postdose” value ([1]; 1 mg/day) is reported as 9.41%. The dose excreted ([1]; 1 mg/day) was 8.86%, the AUC(0-t) ([2]; iv, 1 mg/kg) was 3090 ± 80 ng·h/mL and the Cmax at 5 min ([2]; iv, 1 mg/kg) was 4250 ± 543 ng/mL. It also gave a half-life ([2]; iv, 1 mg/kg, T½ α) of 0.2 h, a half-life ([2]; iv, 1 mg/kg, T½ β) of 1.1 h and a half-life [2, 5] of 3 ± 0.1 h. It also gave an AUC(0-t) ([2]; sc, 0.1 mg/kg) of 252 ± 34 ng·h/mL, a Cmax ([2]; sc, 0.1 mg/kg) of 86.6 ± 19 ng/mL and a Tmax ([2]; sc, 0.1 mg/kg) of 0.8 ± 0.3 h. The bioavailability ([2]; sc, 0.1 mg/kg) was 81.5 ± 11.5%, the half-life ([2]; sc, 0.1 mg/kg, T½ β) was 1.4 ± 0.2 h and the AUC(0-t) ([2]; sc, 1 mg/kg) was 2600 ± 219 ng·h/mL. The Cmax ([2]; sc, 1 mg/kg) was 883 ± 251 ng/mL, the Tmax ([2]; sc, 1 mg/kg) was 0.8 ± 0.3 h and the bioavailability ([2]; sc, 1 mg/kg) was 84 ± 8.1%. It also gave a half-life ([2]; sc, 1 mg/kg, T½ β) of 1.4 ± 0.3 h, a half-life ([2]; sc, 1 mg/kg, T½ γ) of 2.6 ± 0.2 h and an AUC(0-t) ([2]; sc, 10 mg/kg) of 28600 ng·h/mL. The Cmax ([2]; sc, 10 mg/kg) was 8840 ± 1200 ng/mL, the Tmax ([2]; sc, 10 mg/kg) was 1 h and the bioavailability ([2]; sc, 10 mg/kg) was 92.7 ± 7.7%. The half-life ([2]; sc, 10 mg/kg, T½ β) was 1.5 ± 0.4 h, the half-life ([2]; sc, 10 mg/kg, T½ γ) was 2.6 ± 0.1 h and the AUC(0-t) ([3]; iv, 1 mg/kg) was 1460 ± 143 ng·h/mL. It also gave a Cmax at 5 min ([3]; iv, 1 mg/kg) of 2670 ± 234 ng/mL, an AUC(0-t) ([3]; sc, 0.1 mg/kg) of 123 ± 9 ng·h/mL and a Cmax ([3]; sc, 0.1 mg/kg) of 90 ± 12.5 ng/mL. For the same molecule, the Tmax ([3]; sc, 0.1 mg/kg) was 0.5 h, the AUC(0-t) ([3]; sc, 1 mg/kg) was 804 ± 133 ng·h/mL and the Cmax ([3]; sc, 1 mg/kg) was 381 ± 75.5 ng/mL. It also gave a Tmax ([3]; sc, 1 mg/kg) of 0.9 ± 0.2 h, a bioavailability ([3]; sc, 1 mg/kg) of 55.3 ± 8.6% and an AUC(0-t) ([3]; sc, 10 mg/kg) of 309 ± 70 ng·h/mL. It also gave a Cmax ([3]; sc, 10 mg/kg) of 285 ± 58.6 ng/mL, a Tmax ([3]; sc, 10 mg/kg) of 0.3 h and an AUC(0-t) ([4]; iv, 1 mg/kg) of 3160 ± 594 ng·h/mL. For the same molecule, the Cmax at 5 min ([4]; iv, 1 mg/kg) was 5030 ± 787 ng/mL, the half-life ([4]; iv, 1 mg/kg, T½ α) was 0.3 h and the half-life ([4]; iv, 1 mg/kg, T½ β) was 1.2 ± 0.1 h. The half-life [4, 5] was 3.2 ± 0.1 h, the AUC(0-t) ([4]; sc, 0.1 mg/kg) was 295 ± 27 ng·h/mL and the Cmax ([4]; sc, 0.1 mg/kg) was 123 ± 27.3 ng/mL. It also gave a Tmax ([4]; sc, 0.1 mg/kg) of 0.4 ± 0.1 h, a bioavailability ([4]; sc, 0.1 mg/kg) of 94.9 ± 12.4% and a half-life ([4]; sc, 0.1 mg/kg, T½ β) of 1.6 ± 0.3 h. The AUC(0-t) ([4]; sc, 1 mg/kg) was 2790 ± 262 ng·h/mL, the Cmax ([4]; sc, 1 mg/kg) was 1320 ± 316 ng/mL and the Tmax ([4]; sc, 1 mg/kg) was 0.3 h. For the same molecule, the bioavailability ([4]; sc, 1 mg/kg) was 90.1 ± 15.4%, the half-life ([4]; sc, 1 mg/kg, T½ β) was 1.4 ± 0.2 h and the half-life ([4]; sc, 1 mg/kg, T½ γ) was 2.5 ± 0.2 h. The AUC(0-t) ([4]; sc, 10 mg/kg) was 31600 ng·h/mL, the Cmax ([4]; sc, 10 mg/kg) was 12100 ng/mL and the Tmax ([4]; sc, 10 mg/kg) was 0.4 ± 0.1 h. For the same molecule, the bioavailability ([4]; sc, 10 mg/kg) was 102 ± 14.3%, the half-life ([4]; sc, 10 mg/kg, T½ β) was 1.5 ± 0.3 h and the half-life ([4]; sc, 10 mg/kg, T½ γ) was 2.6 ± 0.3 h.
